How the values were obtained:
[1] = test system: human colon cancer xenografts; conditions: cited from earlier work
[2] = Moisture sorption/desorption on VTI SGA-100 moisture balance; format: physicochemical; conditions: for hygroscopicity: judged from sorption 5 to 95% RH
Excerpt: The samples were not dried prior to analysis.

[3] = Storage in closed vial at ambient conditions, XRPD comparison; format: physicochemical; conditions: 31 days
[4] = Dehydration/desolvation under vacuum, XRPD comparison; format: physicochemical
Excerpt: The characterization of this weight loss as THF solvent is supported by the ^1H NMR data.

[5] = solubilized by sodium hydroxide in water; cited from earlier work

CC[C@@]1(O)C(=O)OCc2c1cc1n(c2=O)Cc2cc3cc4c(cc3nc2-1)OCO4 [10,11, MD, 10,11-methylendioxy-20(S)-camptothecin]
anticancer activity [1]: high anticancer activity

CC[C@@]1(O)C(=O)OCc2c1cc1n(c2=O)Cc2cc3c(N)cccc3nc2-1 [Form 9AC, 9-Amino-20(S)-Camptothecin]
anticancer activity [1]: high anticancer activity

CC[C@@]1(O)C(=O)OCc2c1cc1n(c2=O)Cc2cc3c([N+](=O)[O-])cccc3nc2-1 [Form A, 9-nitrocamptothecin]
total weight gained in the region from 5 to 95% RH ([2]; 5 to 95% RH): about 0.03%
Weight % chg ([2]; desorption, RH 4.83 %, 25.03 deg C, elapsed 157.3 min): 0.0275%
Weight % chg ([2]; desorption, RH 15.00 %, 25.03 deg C, elapsed 150.3 min): 0.0307%
Weight % chg ([2]; desorption, RH 24.95 %, 25.02 deg C, elapsed 143.3 min): 0.0324%
Weight % chg ([2]; desorption, RH 34.97 %, 25.02 deg C, elapsed 135.8 min): 0.0348%
Weight % chg ([2]; desorption, RH 45.05 %, 25.02 deg C, elapsed 127.8 min): 0.0372%
Weight % chg ([2]; desorption, RH 54.99 %, 25.02 deg C, elapsed 119.8 min): 0.0381%
Weight % chg ([2]; desorption, RH 65.02 %, 25.02 deg C, elapsed 111.8 min): 0.0405%
Weight % chg ([2]; desorption, RH 75.18 %, 25.03 deg C, elapsed 103.8 min): 0.0429%
Weight % chg ([2]; desorption, RH 84.95 %, 25.03 deg C, elapsed 94.8 min): 0.0429%
water gained upon equilibration to 5% RH ([2]; equilibration to 5% RH): 0.01%
hygroscopicity [2]: not hygroscopic
Weight % chg ([2]; sorption, RH 5.16 %, 25.02 deg C, elapsed 11.1 min): 0.0131%
Weight % chg ([2]; sorption, RH 15.27 %, 25.02 deg C, elapsed 19.6 min): 0.0149%
Weight % chg ([2]; sorption, RH 24.98 %, 25.03 deg C, elapsed 27.2 min): 0.0169%
Weight % chg ([2]; sorption, RH 35.07 %, 25.03 deg C, elapsed 34.7 min): 0.0210%
Weight % chg ([2]; sorption, RH 45.07 %, 25.03 deg C, elapsed 42.2 min): 0.0242%
Weight % chg ([2]; sorption, RH 55.00 %, 25.03 deg C, elapsed 50.2 min): 0.0283%
Weight % chg ([2]; sorption, RH 64.96 %, 25.03 deg C, elapsed 59.2 min): 0.0315%
Weight % chg ([2]; sorption, RH 74.75 %, 25.03 deg C, elapsed 68.3 min): 0.0347%
Weight % chg ([2]; sorption, RH 84.64 %, 25.03 deg C, elapsed 77.3 min): 0.0387%
Weight % chg ([2]; sorption, RH 94.90 %, 25.03 deg C, elapsed 86.3 min): 0.0421%
Weight % chg ([2]; start, RH 14.41 %, 24.99 deg C, elapsed 0.0 min): 0.0000%

CC[C@@]1(O)C(=O)OCc2c1cc1n(c2=O)Cc2cc3c([N+](=O)[O-])cccc3nc2-1 [Form B, 9-nitrocamptothecin]
stability of crystalline form on storage (XRPD pattern unchanged) [3]: relatively stable
hygroscopicity [2]: relatively hygroscopic
Weight % chg ([2]; start, RH 9.87 %, 25.03 deg C, elapsed 0.0 min): 0.0000%

CC[C@@]1(O)C(=O)OCc2c1cc1n(c2=O)Cc2cc3c([N+](=O)[O-])cccc3nc2-1 [Form C, 9-nitrocamptothecin]
form change on attempted desolvation [4]: becomes amorphous

CC[C@@](O)(C(=O)[O-])c1cc2n(c(=O)c1CO)Cc1cc3ccccc3nc1-2.[Na+] [Sodium camptothecin]
antineoplastic activity in clinical trials [5]: antineoplastic activity

From patent US6696458B2 (Super Gen, Inc., priority 2002, dated 2004)
